pIC50: −log10 of the molar value. Where two headings read alike, the source gives them in different places.
Legend:
MK-801 treated mice [1] = assay: Open field test, MK-801 induced hyper-locomotion; assay type: in vivo
Method: (§1) C57BL/6J male mice were group housed (3-5 mice per cage) with food and water available ad libitum in polysulfone ventilated cages (Alternative Design, AR, USA) in the animal room of SyneuRx. The colony was maintained on a 12/12-h light/dark cycle at the temperature of 22±2° C. and all behavioral studies were performed during the dark cycle. All animals used in this study were adult mice (at least 2.5 months of age). All animal procedures were performed according to the protocols approved by Institutional Animal Care and Use Committee (IACUC).
(§2) The mice were randomly assigned into five groups for open field test, Group 1: vehicle control, Group 2: MK-801, Group 3: Compound 66 at 10 mg/kg+MK-801, Group 4: Compound 66 at 30 mg/kg+MK-801, Group 5: Compound 66 at 100 mg/kg+MK-801. Mice at Group 2-5 received an acute administration of MK-801 (Sigma-Aldrich USA), a NMDA receptor antagonist, dissolved in normal saline, at 0.2 mg/kg for open field. For pre-pulse inhibition (PPI) test, animal was randomly assigned for four groups, Group 1: vehicle control, Group 2: MK-801, Group 3: Compound 66 at 3 mg/kg+MK-801, Group 4: Compound 66 at 10 mg/kg. Group 2-4 was received 0.3 mg/kg, MK-801. MK-801 was administrated by i.p. injection 20 minutes prior to open field and PPI tests. Test article, compound 66 (dissolved in ddH2O with 65% PEG400 and 10% DMSO), was orally treated 20 minutes prior to the MK-801 administration.
The open field task is a common measurement of novelty induced exploratory behavior and general activity in both mice and rats. The objective of this experiment was to evaluate the efficacy of compound 66 on attenuating the MK-801 induced hyper-locomotion. In this study, the mice were placed in a Plexiglas cage (37.5 cm×21.5 cm×18 cm) under 50-65 lux light intensity. Their spontaneous locomotor activities were measured for 60 minutes using the Photobeam Activity System (PAS)-open field (San Diego Instruments, San Diego, CA, USA). The total number of photo beam breaks of each mouse was measured as an index of locomotion activity.
as §2, with “74” for “66”, “field test.” for “field.”
(§3) All mice were tested with open field and pre-pulse inhibition tasks. The open field and pre-pulse inhibition tasks were used to evaluate the efficacy of the compound 74 on attenuating the MK-801 induced hyper-locomotion and deficit of sensorimotor gating function in mice, respectively. The apparatus and recording method of open field and pre-pulse inhibition task were as described above in Example 45.
Mice at Group 2-5 received an acute administration of MK-801 (Sigma-Aldrich USA), a NMDA receptor antagonist, dissolved in normal saline, at 0.2 mg/kg for open field test. […] Group […] was received 0.3 mg/kg, MK-801. MK-801 was administrated by i.p. injection 20 minutes prior to open field and PPI tests.
The open field task is a common measurement of novelty induced exploratory behavior and general activity in both mice and rats. […] In this study, the mice were placed in a Plexiglas cage (37.5 cm×21.5 cm×18 cm) under 50-65 lux light intensity. […]

[2] = molecular target: human D-amino acid oxidase (hDAAO) (Homo sapiens (Human), UniProt P14920); assay: In vitro human D-amino acid oxidase (hDAAO) activity, D-Serine/Amplex Red fluorescence; assay type: biochemical; conditions: D-Serine substrate, 20 min
Sequence of human D-amino acid oxidase (hDAAO) (P14920 whole entry): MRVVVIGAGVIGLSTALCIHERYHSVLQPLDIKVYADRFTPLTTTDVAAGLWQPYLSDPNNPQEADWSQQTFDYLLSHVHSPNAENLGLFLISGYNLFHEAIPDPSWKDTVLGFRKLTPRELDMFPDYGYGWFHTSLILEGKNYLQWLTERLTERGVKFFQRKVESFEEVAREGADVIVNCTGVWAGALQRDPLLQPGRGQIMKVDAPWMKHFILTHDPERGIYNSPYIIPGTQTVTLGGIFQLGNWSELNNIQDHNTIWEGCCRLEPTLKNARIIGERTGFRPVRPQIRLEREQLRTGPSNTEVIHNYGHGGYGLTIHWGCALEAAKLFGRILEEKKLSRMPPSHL
Method: The hDAAO inhibitory activities were measured by using D-Serine as a substrate to produce H2O2. The produced H2O2 would be oxidized by peroxidase, and the produced free radicals would further react with Amplex Red reagent to emit fluorescence. The intensity of fluorescence at 590 nm would be measured to represent the activity of hDAAO. All compounds were dissolved in DMSO. Each compound was diluted with DMSO in 3-fold serial dilution to create a dose response curve. Each sample was added in triplicate, 1 µL/well, into 96-well black plates. Positive control wells were added with 1 μL of DMSO. Then 49 μL of assay buffer (100 mM Tris-HCl, pH 8.5) containing 1.2 ng/mL hDAAO, 900 nM FAD, 0.2 units/mL HRP, and 100 μM Amplex Red was added to each well of the plate using a multichannel pipette. Next, 50 μL of 100 mM D-Serine in assay buffer was added. The reaction plates were then incubated in the dark at room temperature. The fluorescence readout was detected at 0 and 20 mins by Molecular Device Gemini EM fluorescence reader using the following settings: excitation filter 530 nm, and emission filter 590 nm. The percentage of inhibition values for each well was calculated with the following equation: The percentage of inhibition=(fluorescence sample, 20 min−fluorescence sample, 0 min)/(fluorescence DMSO, 20 min−fluorescence DMSO, 0 min)×100%
The nonlinear curve fitting model in GraphPad Prism was used to calculate IC50 value for each compound.

MK-801 treated mice [3] = assay: Pre-pulse inhibition (PPI) test, MK-801 induced deficit of sensorimotor gating; assay type: in vivo; conditions: MK-801 0.3 mg/kg i.p.
Method: as §1, §2
Pre-pulse inhibition, using SR-LAB startle apparatus (San Diego Instruments, San Diego, CA, USA), was used to determine the efficacy of compound 66 on attenuating the MK-801 induced deficit of sensorimotor gating function in mice. Under 65 dB background noise, each session was composed of a 5-minute accumulation period followed by 64 trials in four blocks. The pulse alone (PA) trial was a 40 ms, 120 dB white noise burst. In the prepulse (pp)+pulse trials, a 20 ms white noise prepulse stimuli of 71 dB (pp6), 75 dB (pp10), and 83 dB (pp18) were presented 100 ms before a 40 ms 120 dB pulse. The non-stimulus (NS) trials presented the background noise only. The initial and the last blocks were composed of six PA trials, respectively. Two middle blocks consisted of PA, pp+pulse, and NS trials. These trials were presented pseudo-randomly and separated by intertribal intervals of 15 seconds on average (varying between 10 to 20 s). The percentage of prepulse inhibition was evaluated by the following formula: % PPI=100×[(PA score)−(pp-P score)]/(PA score), where the PA score was the average of the PA value in the middle blocks.
as §2, with “74” for “66”, “field test.” for “field.”
as §3, with “45. […]” for “45.”

SARS-CoV-2 3CLPro = SARS-CoV-2 3CLPro (Severe acute respiratory syndrome coronavirus 2 (2019-nCoV) (SARS-CoV-2), UniProt P0DTD1); assay: biochemical; conditions: for pIC50: read-out: IC50; for IC50: read-out: IC50 (μg/mL) (converted)

For `O=C(O)c1cc(O)c(O)c(OC(=O)c2cc(O)c(O)c(OC(=O)c3cc(O)c(O)c(OC(=O)c4cc(O)c(O)c(OC(=O)c5cc(O)c(O)c(OC(=O)c6cc(CCc7ccc(C(F)(F)F)cc7)n[nH]6)c5)c4)c3)c2)c1` [Compound 66, 3-((3-((3-((3-((3,4-dihydroxy-5-((3-(4-(trifluoromethyl)phenethyl)-1H-pyrazole-5-carbonyl)oxy)benzoyl)oxy)-4,5-dihydroxybenzoyl)oxy)-4,5-dihydroxybenzoyl)oxy)-4,5-dihydroxybenzoyl)oxy)-4,5-dihydroxybenzoic acid], the “effect on MK-801 induced hyper-locomotion vs MK-801 group” value (MK-801 treated mice [1]; 10, 30 and 100 mg/kg oral, dose-dependent) was “significantly reduced”, the “relief of MK801-induced hyperactivity” value (MK-801 treated mice [1]; high dose 100 mg/kg oral, MK-801 0.2 mg/kg i.p., open field) was 67% and the pIC50 [2] was 7.60. For the same compound, the “effect on pre-pulse inhibition vs MK-801 group” value (MK-801 treated mice [3]; 71 dB pre-pulse, 10 mg/kg oral) was “relieve PPI deficit to basal level”, the “effect on pre-pulse inhibition vs MK-801 group” value (MK-801 treated mice [3]; 75 dB and 83 dB pre-pulse, 3 mg/kg oral) was “marginal improvement” and the “effect on pre-pulse inhibition vs MK-801 group” value (MK-801 treated mice [3]; 75 dB and 83 dB pre-pulse, 10 mg/kg oral) was “significantly higher percentage of pre-pulse inhibition”.
`O=C(O)c1cc(O)c(O)c(OC(=O)c2cc(O)c(O)c(OC(=O)c3cc(O)c(O)c(OC(=O)c4cc(O)c(O)c(OC(=O)c5cc(O)c(O)c(OC(=O)c6ccccc6)c5)c4)c3)c2)c1` [Compound 77, 3-((3-((3-((3-((3-(benzoyloxy)-4,5-dihydroxybenzoyl)oxy)-4,5-dihydroxybenzoyl)oxy)-4,5-dihydroxybenzoyl)oxy)-4,5-dihydroxybenzoyl)oxy)-4,5-dihydroxybenzoic acid] was tested, and the pIC50 (SARS-CoV-2 3CLPro; final DMSO concentration 0.4%) was 5.36, the IC50 (SARS-CoV-2 3CLPro; final DMSO concentration 0.4%) was 4.33 µM and the pIC50 [2] was 7.14.
In the case of `O=C(CC1CCCCC1)Oc1cc(C(=O)Oc2cc(C(=O)Oc3cc(C(=O)Oc4cc(C(=O)Oc5cc(C(=O)O)cc(O)c5O)cc(O)c4O)cc(O)c3O)cc(O)c2O)cc(O)c1O` [Compound 80, 3-((3-((3-((3-((3-(2-cyclohexylacetoxy)-4,5-dihydroxybenzoyl)oxy)-4,5-dihydroxybenzoyl)oxy)-4,5-dihydroxybenzoyl)oxy)-4,5-dihydroxybenzoyl)oxy)-4,5-dihydroxybenzoic acid], the pIC50 (SARS-CoV-2 3CLPro; final DMSO concentration 2%) was < 4.20, the IC50 (SARS-CoV-2 3CLPro; final DMSO concentration 2%) was > 62.5 µM and the pIC50 [2] was 7.24.
With `O=C(Oc1ccccc1)c1cc(O)c(O)c(OC(=O)c2cc(O)c(O)c(OC(=O)c3cc(O)c(O)c(OC(=O)c4cc(O)c(O)c(OC(=O)c5cc(O)c(O)c(OC(=O)c6ccccc6)c5)c4)c3)c2)c1` [Compound 85, 5-((5-((5-((2,3-dihydroxy-5-(phenoxycarbonyl)phenoxy)carbonyl)-2,3-dihydroxyphenoxy)carbonyl)-2,3-dihydroxyphenoxy)carbonyl)-2,3-dihydroxyphenyl 3-(benzoyloxy)-4,5-dihydroxybenzoate] the pIC50 (SARS-CoV-2 3CLPro; final DMSO concentration 2%) was 5.63, the IC50 (SARS-CoV-2 3CLPro; final DMSO concentration 2%) was 2.37 µM and the pIC50 [2] was 7.51.
`O=C(OCc1cc(CCc2ccc(F)cc2)n[nH]1)c1cc(O)c(O)c(OC(=O)c2cc(O)c(O)c(OC(=O)c3cc(O)c(O)c(OC(=O)c4cc(O)c(O)c(OC(=O)c5cc(O)c(O)c(O)c5)c4)c3)c2)c1` [Compound 92, 5-((5-((5-((5-(((3-(4-fluorophenethyl)-1H-pyrazol-5-yl)methoxy)carbonyl)-2,3-dihydroxyphenoxy)carbonyl)-2,3-dihydroxyphenoxy)carbonyl)-2,3-dihydroxyphenoxy)carbonyl)-2,3-dihydroxyphenyl 3,4,5-trihydroxybenzoate] showed a pIC50 (SARS-CoV-2 3CLPro; final DMSO concentration 2%) of 5.62, an IC50 (SARS-CoV-2 3CLPro; final DMSO concentration 2%) of 2.42 µM and a pIC50 [2] of 7.64.
For `O=C(O)c1cc(O)c(O)c(OC(=O)c2cc(O)c(O)c(OC(=O)c3cc(O)c(O)c(OC(=O)c4cc(O)c(O)c(O)c4)c3)c2)c1` [Compound 149, 3-((3-((3,4-dihydroxy-5-((3,4,5-trihydroxybenzoyl)oxy)benzoyl)oxy)-4,5-dihydroxybenzoyl)oxy)-4,5-dihydroxybenzoic acid], the pIC50 [2] was 7.32.
